Ends that are not written are not given here.
Test system: HEK293-GLP-2R-Luc cells

## HGEGTFSSELATILDALAARDFINWLIATKITDKKKKKK-NH2 [glepaglutide]
Qvalue 4.04 × 10^−5
  log2 (TD/Ctrl) CACNB1: 1.075
Qvalue 4.05 × 10^−4
  log2 (TD/Ctrl) CHAC1: 1.141
Qvalue 4.05 × 10^−7
  log2 (TD/Ctrl) PDK4: 1.463
Qvalue 4.19 × 10^−5
  log2 (TD/Ctrl) GUCY1A1: −1.107
Qvalue 4.24 × 10^−5
  log2 (TD/Ctrl) SNAP25: 1.698
Qvalue 4.28 × 10^−58
  log2 (TD/Ctrl) CALCB: 3.658
Qvalue 4.35 × 10^−6
  log2 (TD/Ctrl) PDE8B: 1.08
Qvalue 4.40 × 10^−6
  log2 (TD/Ctrl) FAM86B2: 1.144
Qvalue 4.43 × 10^−29
  log2 (TD/Ctrl) CD55: 1.554
Qvalue 4.45 × 10^−11
  log2 (TD/Ctrl) PDE10A: 1.052
Qvalue 4.48 × 10^−29
  log2 (TD/Ctrl) IGFBP5: −1.803
Qvalue 4.52 × 10^−19
  log2 (TD/Ctrl) PPP1R15A: 1.729
Qvalue 4.57 × 10^−4
  log2 (TD/Ctrl) FAM131B: 2.284
Qvalue 4.77 × 10^−6
  log2 (TD/Ctrl) DCLK1: 1.118
Qvalue 4.77 × 10^−21
  log2 (TD/Ctrl) ARC: 2.548
Qvalue 4.83 × 10^−7
  log2 (TD/Ctrl) TRMT11: 1.007
Qvalue 4.84 × 10^−4
  log2 (TD/Ctrl) BRSK1: 1.033
Qvalue 4.89 × 10^−10
  log2 (TD/Ctrl) CXCL8: 2.264
Qvalue 4.91 × 10^−4
  log2 (TD/Ctrl) MMP10: 2.63
Qvalue 4.98 × 10^−8
  log2 (TD/Ctrl) NTS: 3.901
Qvalue 5.19 × 10^−4
  log2 (TD/Ctrl) INKA2: −1.14
Qvalue 5.28 × 10^−10
  log2 (TD/Ctrl) RSRC2: 1.09
Qvalue 5.30 × 10^−8
  log2 (TD/Ctrl) PCDH9: −1.158
Qvalue 5.31 × 10^−8
  log2 (TD/Ctrl) NCOA5: −1.2433
Qvalue 5.32 × 10^−8
  log2 (TD/Ctrl) PROCR: 1.201
Qvalue 5.33 × 10^−8
  log2 (TD/Ctrl) AVPI1: 1.192
Qvalue 5.36 × 10^−4
  log2 (TD/Ctrl) IL12A: 1.606
Qvalue 5.36 × 10^−15
  log2 (TD/Ctrl) CCN2: 2.558
Qvalue 5.37 × 10^−34
  log2 (TD/Ctrl) PCSK1: 5.002
Qvalue 5.44 × 10^−4
  log2 (TD/Ctrl) HSPB8: 1.961
Qvalue 5.45 × 10^−20
  log2 (TD/Ctrl) CHGB: 3.305
Qvalue 5.54 × 10^−6
  log2 (TD/Ctrl) LY6K: 2.444
Qvalue 5.55 × 10^−11
  log2 (TD/Ctrl) TNFRSF10D: −1.432
Qvalue 5.63 × 10^−24
  log2 (TD/Ctrl) RNF122: 1.985
Qvalue 5.75 × 10^−4
  log2 (TD/Ctrl) PAPPA: 1.578
Qvalue 5.77 × 10^−13
  log2 (TD/Ctrl) CTH: 1.317
Qvalue 5.77 × 10^−17
  log2 (TD/Ctrl) ETV5: 1.932
Qvalue 5.84 × 10^−23
  log2 (TD/Ctrl) FOSL1: 3.193
Qvalue 5.89 × 10^−10
  log2 (TD/Ctrl) UBE2QL1: 1.897
Qvalue 5.99 × 10^−8
  log2 (TD/Ctrl) PCK1: 4.954
Qvalue 6.03 × 10^−37
  log2 (TD/Ctrl) SYAP1: 1.501
Qvalue 6.10 × 10^−16
  log2 (TD/Ctrl) ADAMTS1: 1.32
Qvalue 6.12 × 10^−5
  log2 (TD/Ctrl) TSPAN18: 1.221
Qvalue 6.15 × 10^−17
  log2 (TD/Ctrl) ZNF697: 1.651
Qvalue 6.18 × 10^−4
  log2 (TD/Ctrl) NME1-NME2: 1.069
Qvalue 6.18 × 10^−6
  log2 (TD/Ctrl) TAF1D: 1.001
Qvalue 6.27 × 10^−10
  log2 (TD/Ctrl) GAB2: 1.866
Qvalue 6.33 × 10^−4
  log2 (TD/Ctrl) ZNF718: −1.3027
Qvalue 6.34 × 10^−6
  log2 (TD/Ctrl) OMA1: −1.165
Qvalue 6.41 × 10^−18
  log2 (TD/Ctrl) EPHA7: −1.443
Qvalue 6.44 × 10^−8
  log2 (TD/Ctrl) NR4A3: 1.795
Qvalue 6.48 × 10^−5
  log2 (TD/Ctrl) AREG: 3.509
Qvalue 6.60 × 10^−42
  log2 (TD/Ctrl) ZCCHC12: 2.11
Qvalue 6.69 × 10^−14
  log2 (TD/Ctrl) CHMP1B: 1.048
Qvalue 6.73 × 10^−6
  log2 (TD/Ctrl) KBTBD7: −1.122
Qvalue 6.74 × 10^−4
  log2 (TD/Ctrl) FAM200C: −1.19
Qvalue 6.76 × 10^−10
  log2 (TD/Ctrl) EGR1: 2.978
Qvalue 6.86 × 10^−10
  log2 (TD/Ctrl) PLAUR: 1.559
Qvalue 6.95 × 10^−9
  log2 (TD/Ctrl) MAP2K6: −1.348
Qvalue 7.07 × 10^−23
  log2 (TD/Ctrl) NR4A2: 2.428
Qvalue 7.12 × 10^−9
  log2 (TD/Ctrl) P2RY11: −9.7959
Qvalue 7.13 × 10^−10
  log2 (TD/Ctrl) CARMIL2: 1.753
Qvalue 7.17 × 10^−4
  log2 (TD/Ctrl) COL7A1: −1.612
Qvalue 7.46 × 10^−4
  log2 (TD/Ctrl) KRT17: 3.685
Qvalue 7.65 × 10^−4
  log2 (TD/Ctrl) PTRH1: 1.322
Qvalue 7.76 × 10^−5
  log2 (TD/Ctrl) CBARP: 1.225
Qvalue 7.78 × 10^−9
  log2 (TD/Ctrl) ZBTB12: −1.6
Qvalue 7.84 × 10^−76
  log2 (TD/Ctrl) CGA: 7.042
Qvalue 7.93 × 10^−10
  log2 (TD/Ctrl) SERPINE2: 1.136
Qvalue 8.03 × 10^−15
  log2 (TD/Ctrl) GABARAPL1: 1.405
Qvalue 8.07 × 10^−20
  log2 (TD/Ctrl) COL1A1: 1.91
Qvalue 8.22 × 10^−4
  log2 (TD/Ctrl) NDRG4: 1.306
Qvalue 8.25 × 10^−6
  log2 (TD/Ctrl) QRICH2: −1.253
Qvalue 8.27 × 10^−27
  log2 (TD/Ctrl) CD24: 2.289
Qvalue 8.43 × 10^−12
  log2 (TD/Ctrl) ZNF331: 1.041
Qvalue 8.54 × 10^−5
  log2 (TD/Ctrl) FZD4: −1.071
Qvalue 8.61 × 10^−5
  log2 (TD/Ctrl) RGS6: 4.489
Qvalue 8.67 × 10^−7
  log2 (TD/Ctrl) NR4A1: 4.426
Qvalue 8.87 × 10^−4
  log2 (TD/Ctrl) BMPER: 2.13
Qvalue 9.14 × 10^−13
  log2 (TD/Ctrl) IER2: 1.167
Qvalue 9.22 × 10^−49
  log2 (TD/Ctrl) INHBA: 4.678
Qvalue 9.32 × 10^−11
  log2 (TD/Ctrl) SERPINB9: 1.4
Qvalue 9.33 × 10^−42
  log2 (TD/Ctrl) GADD45B: 1.995
Qvalue 9.51 × 10^−4
  log2 (TD/Ctrl) FAM111B: −1.222
Qvalue 9.62 × 10^−6
  log2 (TD/Ctrl) FHL2: 1.082
Qvalue 9.77 × 10^−25
  log2 (TD/Ctrl) NFKB2: 1.551
Qvalue 9.85 × 10^−6
  log2 (TD/Ctrl) EDA2R: −1.374
Qvalue 9.86 × 10^−8
  log2 (TD/Ctrl) EGR3: 2.228
Qvalue 9.88 × 10^−5
  log2 (TD/Ctrl) LAMB3: 1.323
Qvalue 9.88 × 10^−7
  log2 (TD/Ctrl) SAP30L: −1.0123
Qvalue […] 10^−12
  log2 (TD/Ctrl) SCARA5: 3.284
Qvalue […] 10^−17
  log2 (TD/Ctrl) GCNA: 1.602
Qvalue […] 10^−76
  log2 (TD/Ctrl) TAC1: 4.689

Source: publication PMC12073449, “Development of a Mechanism of Action-Reflective Cell-Based Reporter Gene Assay for Measuring Bioactivities of Therapeutic Glucagon-like Peptide-2 Analogues” (Molecules, 2025)
